Measured values taken from ChEMBL document CHEMBL4507263, “Data for DCP probe BAY-474” (2021).

What was measured:
[1] = target: Casein kinase I isoform alpha-like (Homo sapiens) (UniProt Q8N752); conditions: Compound concentration 1000.0 nM
[2] = target: Casein kinase I isoform delta (Homo sapiens) (UniProt P48730); conditions: Compound concentration 1000.0 nM
[3] = target: Death-associated protein kinase 1 (Homo sapiens) (UniProt P53355); conditions: Compound concentration 1000.0 nM
[4] = target: Serine/threonine-protein kinase MRCK gamma (Homo sapiens) (UniProt Q6DT37); conditions: Compound concentration 1000.0 nM
[5] = test system: Epidermal growth factor receptor (Homo sapiens), P00533 [UNDEFINED MUTATION]; conditions: Compound concentration 1000.0 nM
[6] = test system: Epidermal growth factor receptor (Homo sapiens), P00533 [G719S]; conditions: Compound concentration 1000.0 nM
[7] = target: Ephrin type-A receptor 6 (Homo sapiens) (UniProt Q9UF33); conditions: Compound concentration 1000.0 nM
[8] = target: Tyrosine-protein kinase Fyn (Homo sapiens) (UniProt P06241); conditions: Compound concentration 1000.0 nM
[9] = target: G protein-coupled receptor kinase 4 (Homo sapiens) (UniProt P32298); conditions: Compound concentration 1000.0 nM
[10] = target: Mast/stem cell growth factor receptor Kit (Homo sapiens) (UniProt P10721); conditions: Compound concentration 1000.0 nM
[11] = target: Serine/threonine-protein kinase LATS2 (Homo sapiens) (UniProt Q9NRM7); conditions: Compound concentration 1000.0 nM
[12] = target: Leucine-rich repeat serine/threonine-protein kinase 2 (Homo sapiens) (UniProt Q5S007); conditions: Compound concentration 1000.0 nM
[13] = target: Serine/threonine-protein kinase MAK (Homo sapiens) (UniProt P20794); conditions: Compound concentration 1000.0 nM
[14] = target: Tyrosine-protein kinase Mer (Homo sapiens) (UniProt Q12866); conditions: Compound concentration 1000.0 nM
[15] = target: Serine/threonine-protein kinase 26 (Homo sapiens) (UniProt Q9P289); conditions: Compound concentration 1000.0 nM
[16] = test system: Phosphatidylinositol 4,5-bisphosphate 3-kinase catalytic subunit alpha isoform (Homo sapiens), P42336 [C420R]; conditions: Compound concentration 1000.0 nM
[17] = test system: Phosphatidylinositol 4,5-bisphosphate 3-kinase catalytic subunit alpha isoform (Homo sapiens), P42336 [E545K]; conditions: Compound concentration 1000.0 nM
[18] = target: 1-phosphatidylinositol 3-phosphate 5-kinase (Homo sapiens) (UniProt Q9Y2I7); conditions: Compound concentration 1000.0 nM
[19] = target: Protein kinase C epsilon type (Homo sapiens) (UniProt Q02156); conditions: Compound concentration 1000.0 nM
[20] = target: Protein kinase C theta type (Homo sapiens) (UniProt Q04759); conditions: Compound concentration 1000.0 nM
[21] = test system: Proto-oncogene tyrosine-protein kinase receptor Ret (Homo sapiens), P07949 [M918T]; conditions: Compound concentration 1000.0 nM
[22] = target: Serine/threonine-protein kinase RIO1 (Homo sapiens) (UniProt Q9BRS2); conditions: Compound concentration 1000.0 nM
[23] = target: Ribosomal protein S6 kinase alpha-5 (Homo sapiens) (UniProt O75582); conditions: Compound concentration 1000.0 nM
[24] = target: Serine/threonine-protein kinase Sgk1 (Homo sapiens) (UniProt O00141); conditions: Compound concentration 1000.0 nM
[25] = target: STE20-like serine/threonine-protein kinase (Homo sapiens) (UniProt Q9H2G2); conditions: Compound concentration 1000.0 nM
[26] = target: SRSF protein kinase 1 (Homo sapiens) (UniProt Q96SB4); conditions: Compound concentration 1000.0 nM
[27] = target: Non-receptor tyrosine-protein kinase TYK2 (Homo sapiens) (UniProt P29597); conditions: Compound concentration 1000.0 nM
[28] = target: Tyrosine-protein kinase receptor TYRO3 (Homo sapiens) (UniProt Q06418); conditions: Compound concentration 1000.0 nM
[29] = target: Serine/threonine-protein kinase WNK3 (Homo sapiens) (UniProt Q9BYP7); conditions: Compound concentration 1000.0 nM
[30] = target: Serine/threonine-protein kinase 32C (Homo sapiens) (UniProt Q86UX6); conditions: Compound concentration 1000.0 nM
[31] = target: Homeodomain-interacting protein kinase 3 (Homo sapiens) (UniProt Q9H422); experiment: HIPK3 (h) Millipore kinase activity assay; conditions: Compound concentration 1.0 uM
[32] = target: Ribosomal protein S6 kinase alpha-4 (Homo sapiens) (UniProt O75676); experiment: MSK2 (h) Millipore kinase activity assay; conditions: Compound concentration 1.0 uM
[33] = target: Serine/threonine-protein kinase PAK 3 (Homo sapiens) (UniProt O75914); experiment: PAK3 (h) Millipore kinase activity assay; conditions: Compound concentration 1.0 uM
[34] = target: Serine/threonine-protein kinase PAK 6 (Homo sapiens) (UniProt Q9NQU5); experiment: PAK6 (h) Millipore kinase activity assay; conditions: Compound concentration 1.0 uM
[35] = target: Protein kinase C iota type (Homo sapiens) (UniProt P41743); experiment: PKCiota (h) Millipore kinase activity assay; conditions: Compound concentration 1.0 uM
[36] = target: Serine/threonine-protein kinase D2 (Homo sapiens) (UniProt Q9BZL6); experiment: PKD2 (h) Millipore kinase activity assay; conditions: Compound concentration 1.0 uM
[37] = target: Protein-tyrosine kinase 2-beta (Homo sapiens) (UniProt Q14289); experiment: Pyk2 (h) Millipore kinase activity assay; conditions: Compound concentration 1.0 uM
[38] = target: Testis-specific serine/threonine-protein kinase 1 (Homo sapiens) (UniProt Q9BXA7); experiment: TSSK1 (h) Millipore kinase activity assay; conditions: Compound concentration 1.0 uM
[39] = target: Glutamate receptor ionotropic, kainate (Rattus norvegicus) (UniProt P22756+Q01812+P42260+P42264+Q63273); experiment: Inhibition of Glutamate, Kainate at 10 µM in the Eurofins-Panlabs radioligand binding assay (Eurofins_assay_232700); conditions: Compound concentration 10.0 uM
Rattus norvegicus = species on record: Rattus norvegicus; experiment: Inhibition of Imidazoline I2, Central at 10 µM in the Eurofins-Panlabs radioligand binding assay (Eurofins_assay_241000); set-up: ligand concentration 2 nM; conditions: Compound concentration 10.0 uM
[40] = target: Neuropeptide Y receptor type 2 (Homo sapiens) (UniProt P49146); experiment: Inhibition of Neuropeptide Y Y2 at 10 µM in the Eurofins-Panlabs radioligand binding assay (Eurofins_assay_257110); conditions: Compound concentration 10.0 uM
[41] = target: Kappa-type opioid receptor (Homo sapiens) (UniProt P41145); conditions: Compound concentration 10.0 uM
[42] = target: Histamine H1 receptor (Homo sapiens) (UniProt P35367); conditions: Compound concentration 10.0 uM
[43] = target: Dual specificity tyrosine-phosphorylation-regulated kinase 2 (Homo sapiens) (UniProt Q92630); experiment: DYRK2 (h) Millipore kinase activity assay; conditions: Compound concentration 1.0 uM
Sequence of Dual specificity tyrosine-phosphorylation-regulated kinase 2 (Homo sapiens) (Q92630 whole entry, looked up): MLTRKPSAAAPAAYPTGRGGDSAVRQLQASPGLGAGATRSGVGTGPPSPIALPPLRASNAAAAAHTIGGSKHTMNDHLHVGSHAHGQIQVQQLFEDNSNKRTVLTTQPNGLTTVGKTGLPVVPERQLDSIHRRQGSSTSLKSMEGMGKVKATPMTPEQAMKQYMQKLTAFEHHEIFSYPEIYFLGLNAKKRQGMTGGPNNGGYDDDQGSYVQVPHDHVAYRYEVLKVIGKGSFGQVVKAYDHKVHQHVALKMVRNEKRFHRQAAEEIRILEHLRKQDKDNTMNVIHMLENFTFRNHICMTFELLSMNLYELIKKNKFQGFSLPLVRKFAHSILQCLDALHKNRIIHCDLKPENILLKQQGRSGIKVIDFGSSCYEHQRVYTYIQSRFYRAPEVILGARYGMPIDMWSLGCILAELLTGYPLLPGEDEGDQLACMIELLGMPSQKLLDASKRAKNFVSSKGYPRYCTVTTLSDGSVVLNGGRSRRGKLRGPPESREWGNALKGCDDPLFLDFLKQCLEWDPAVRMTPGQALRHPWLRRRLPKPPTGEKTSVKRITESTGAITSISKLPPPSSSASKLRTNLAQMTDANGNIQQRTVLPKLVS

Sequence of Protein kinase C iota type (Homo sapiens) (P41743 whole entry): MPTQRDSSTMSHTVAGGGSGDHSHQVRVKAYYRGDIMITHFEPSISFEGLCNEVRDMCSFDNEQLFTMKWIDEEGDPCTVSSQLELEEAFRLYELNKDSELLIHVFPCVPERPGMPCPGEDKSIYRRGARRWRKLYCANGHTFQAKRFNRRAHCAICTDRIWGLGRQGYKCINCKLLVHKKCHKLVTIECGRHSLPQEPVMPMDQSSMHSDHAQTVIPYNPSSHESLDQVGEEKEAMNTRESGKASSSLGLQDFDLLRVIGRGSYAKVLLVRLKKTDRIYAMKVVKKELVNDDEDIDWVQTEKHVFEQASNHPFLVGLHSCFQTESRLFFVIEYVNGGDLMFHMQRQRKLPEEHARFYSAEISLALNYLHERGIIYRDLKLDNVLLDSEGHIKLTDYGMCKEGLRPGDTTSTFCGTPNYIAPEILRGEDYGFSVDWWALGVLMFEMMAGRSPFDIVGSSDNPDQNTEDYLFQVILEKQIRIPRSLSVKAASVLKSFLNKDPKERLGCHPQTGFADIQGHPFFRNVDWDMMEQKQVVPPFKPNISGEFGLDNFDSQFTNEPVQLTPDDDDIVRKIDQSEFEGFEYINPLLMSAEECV
Sequence of Histamine H1 receptor (Homo sapiens) (P35367 whole entry): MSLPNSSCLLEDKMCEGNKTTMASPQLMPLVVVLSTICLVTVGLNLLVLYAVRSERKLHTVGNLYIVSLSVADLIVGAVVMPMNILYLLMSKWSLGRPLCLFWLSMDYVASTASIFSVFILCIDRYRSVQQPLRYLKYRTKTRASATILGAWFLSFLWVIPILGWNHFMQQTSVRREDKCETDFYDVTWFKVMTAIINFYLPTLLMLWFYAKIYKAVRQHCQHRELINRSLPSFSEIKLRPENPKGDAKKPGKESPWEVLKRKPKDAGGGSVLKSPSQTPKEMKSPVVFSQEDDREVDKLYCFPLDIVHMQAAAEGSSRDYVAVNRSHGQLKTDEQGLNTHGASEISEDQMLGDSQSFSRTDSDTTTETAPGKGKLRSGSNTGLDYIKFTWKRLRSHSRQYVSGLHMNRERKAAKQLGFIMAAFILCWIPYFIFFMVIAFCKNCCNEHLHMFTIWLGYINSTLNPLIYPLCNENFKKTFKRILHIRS
Sequence of Ribosomal protein S6 kinase alpha-4 (Homo sapiens) (O75676 whole entry, looked up): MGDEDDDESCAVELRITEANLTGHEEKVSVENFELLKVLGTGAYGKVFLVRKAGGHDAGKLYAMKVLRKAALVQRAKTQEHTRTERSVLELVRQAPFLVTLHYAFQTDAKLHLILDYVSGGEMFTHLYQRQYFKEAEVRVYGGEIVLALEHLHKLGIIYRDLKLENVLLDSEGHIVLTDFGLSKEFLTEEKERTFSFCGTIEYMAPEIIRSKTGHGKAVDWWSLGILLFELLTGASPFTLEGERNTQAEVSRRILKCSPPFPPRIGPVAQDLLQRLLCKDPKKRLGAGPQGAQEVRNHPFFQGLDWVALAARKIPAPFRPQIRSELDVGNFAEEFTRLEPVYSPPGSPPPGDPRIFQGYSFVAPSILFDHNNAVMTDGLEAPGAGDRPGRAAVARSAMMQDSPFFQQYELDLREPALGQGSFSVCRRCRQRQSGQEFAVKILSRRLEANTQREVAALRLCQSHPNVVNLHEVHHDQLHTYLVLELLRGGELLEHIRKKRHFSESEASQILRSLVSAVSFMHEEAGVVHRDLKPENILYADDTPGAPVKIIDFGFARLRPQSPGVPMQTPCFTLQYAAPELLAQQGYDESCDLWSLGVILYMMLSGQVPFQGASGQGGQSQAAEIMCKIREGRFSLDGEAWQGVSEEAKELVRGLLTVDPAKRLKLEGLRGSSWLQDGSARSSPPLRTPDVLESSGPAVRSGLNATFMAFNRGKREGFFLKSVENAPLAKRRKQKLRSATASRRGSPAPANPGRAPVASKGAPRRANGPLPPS
Sequence of Ribosomal protein S6 kinase alpha-5 (Homo sapiens) (O75582 whole entry, looked up): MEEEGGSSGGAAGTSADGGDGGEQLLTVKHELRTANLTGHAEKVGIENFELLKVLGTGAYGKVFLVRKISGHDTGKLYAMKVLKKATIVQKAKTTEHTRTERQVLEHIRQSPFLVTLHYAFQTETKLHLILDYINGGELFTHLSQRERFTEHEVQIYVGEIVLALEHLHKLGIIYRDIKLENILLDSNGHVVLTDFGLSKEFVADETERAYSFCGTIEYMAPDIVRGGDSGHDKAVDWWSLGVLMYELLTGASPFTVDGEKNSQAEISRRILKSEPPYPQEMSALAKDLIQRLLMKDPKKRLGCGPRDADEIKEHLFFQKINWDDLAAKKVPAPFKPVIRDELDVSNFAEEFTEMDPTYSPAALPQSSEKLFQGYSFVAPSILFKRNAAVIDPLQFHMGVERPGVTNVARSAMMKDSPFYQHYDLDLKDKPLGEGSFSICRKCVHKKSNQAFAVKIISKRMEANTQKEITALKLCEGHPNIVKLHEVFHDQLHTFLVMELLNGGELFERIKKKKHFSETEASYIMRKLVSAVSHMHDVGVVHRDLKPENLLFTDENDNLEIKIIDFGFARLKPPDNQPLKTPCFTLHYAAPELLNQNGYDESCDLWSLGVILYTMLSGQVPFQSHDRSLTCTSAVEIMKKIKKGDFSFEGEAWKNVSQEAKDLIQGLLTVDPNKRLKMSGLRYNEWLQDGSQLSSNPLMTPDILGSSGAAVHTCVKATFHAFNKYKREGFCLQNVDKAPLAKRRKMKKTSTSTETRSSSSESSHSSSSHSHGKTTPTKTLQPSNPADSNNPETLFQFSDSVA
Sequence of Serine/threonine-protein kinase D2 (Homo sapiens) (Q9BZL6 whole entry): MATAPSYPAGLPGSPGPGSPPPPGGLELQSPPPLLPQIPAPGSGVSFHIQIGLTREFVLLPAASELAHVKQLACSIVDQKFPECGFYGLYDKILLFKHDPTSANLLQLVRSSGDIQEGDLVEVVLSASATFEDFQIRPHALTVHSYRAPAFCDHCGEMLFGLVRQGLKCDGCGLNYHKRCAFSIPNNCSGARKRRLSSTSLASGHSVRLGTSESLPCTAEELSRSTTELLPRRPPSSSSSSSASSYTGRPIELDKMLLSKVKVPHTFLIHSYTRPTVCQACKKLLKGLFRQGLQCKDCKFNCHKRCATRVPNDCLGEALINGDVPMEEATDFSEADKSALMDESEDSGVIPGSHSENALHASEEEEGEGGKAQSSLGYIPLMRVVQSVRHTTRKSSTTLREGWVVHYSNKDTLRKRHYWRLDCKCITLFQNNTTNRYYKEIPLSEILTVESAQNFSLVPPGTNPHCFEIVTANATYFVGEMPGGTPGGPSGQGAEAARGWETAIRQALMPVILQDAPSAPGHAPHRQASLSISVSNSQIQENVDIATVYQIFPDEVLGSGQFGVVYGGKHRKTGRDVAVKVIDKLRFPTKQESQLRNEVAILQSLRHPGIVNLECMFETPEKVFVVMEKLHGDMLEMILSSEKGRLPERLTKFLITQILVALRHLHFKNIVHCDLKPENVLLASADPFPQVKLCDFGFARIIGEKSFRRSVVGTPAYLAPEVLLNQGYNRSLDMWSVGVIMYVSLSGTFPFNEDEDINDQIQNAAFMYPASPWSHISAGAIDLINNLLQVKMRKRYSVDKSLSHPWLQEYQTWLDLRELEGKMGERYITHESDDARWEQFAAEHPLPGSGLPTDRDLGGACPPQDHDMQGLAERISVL
Sequence of Serine/threonine-protein kinase 32C (Homo sapiens) (Q86UX6 whole entry): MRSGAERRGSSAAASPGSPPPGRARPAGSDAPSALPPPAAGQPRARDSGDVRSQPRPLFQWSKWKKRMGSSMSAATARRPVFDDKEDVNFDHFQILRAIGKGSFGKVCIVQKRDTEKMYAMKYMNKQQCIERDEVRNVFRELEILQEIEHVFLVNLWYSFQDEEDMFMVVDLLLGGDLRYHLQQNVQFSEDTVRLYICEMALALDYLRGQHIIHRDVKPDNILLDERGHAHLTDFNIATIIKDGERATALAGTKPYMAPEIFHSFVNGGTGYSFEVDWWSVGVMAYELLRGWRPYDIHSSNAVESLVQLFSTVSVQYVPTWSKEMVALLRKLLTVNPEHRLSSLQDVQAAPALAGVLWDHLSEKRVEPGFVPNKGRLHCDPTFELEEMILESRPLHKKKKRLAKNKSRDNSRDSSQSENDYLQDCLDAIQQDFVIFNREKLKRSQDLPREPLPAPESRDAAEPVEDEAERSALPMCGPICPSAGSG
Sequence of Serine/threonine-protein kinase 26 (Homo sapiens) (Q9P289 2-416 limits assumed): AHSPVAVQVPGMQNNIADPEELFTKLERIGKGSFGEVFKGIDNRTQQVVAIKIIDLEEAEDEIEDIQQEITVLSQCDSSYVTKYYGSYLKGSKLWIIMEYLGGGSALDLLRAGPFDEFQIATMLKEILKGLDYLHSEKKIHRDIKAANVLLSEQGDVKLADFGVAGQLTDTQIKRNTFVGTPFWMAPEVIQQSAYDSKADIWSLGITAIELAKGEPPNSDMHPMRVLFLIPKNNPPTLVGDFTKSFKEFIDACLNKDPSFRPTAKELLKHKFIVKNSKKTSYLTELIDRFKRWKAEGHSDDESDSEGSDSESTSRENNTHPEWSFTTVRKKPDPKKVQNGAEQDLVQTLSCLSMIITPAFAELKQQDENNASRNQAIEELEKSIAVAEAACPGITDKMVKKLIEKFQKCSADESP

CC1=C(C#N)[C@@H](c2ccc3[nH]nc(C)c3c2)C(C#N)=C(c2ccc(Cl)cc2)N1 [BAY-827]
inactive: residual activity [1] 100% | residual activity [2] 100% | residual activity [3] 100% | residual activity [4] 93.6% | residual activity [5] 75.1% | residual activity [6] 86.8% | residual activity [7] 100% | residual activity [8] 69% | residual activity [9] 100% | residual activity [10] 71.2% | residual activity [11] 100% | residual activity [12] 91.7% | residual activity [13] 85.1% | residual activity [14] 100% | residual activity [15] 100% | residual activity [16] 100% | residual activity [17] 74.9% | residual activity [18] 100% | residual activity [19] 100% | residual activity [20] 100% | residual activity [21] 97.2% | residual activity [22] 100% | residual activity [23] 100% | residual activity [24] 100% | residual activity [25] 100% | residual activity [26] 100% | residual activity [27] 100% | residual activity [28] 74.4% | residual activity [29] 100% | residual activity [30] 91.2%

CC1=C(C#N)C(c2ccc3[nH]nc(C)c3c2)C(C#N)=C(C)N1 [BAY-474]
inactive: inhibition [31] -4% | inhibition [32] -1% | inhibition [33] -8% | inhibition [34] 7% | inhibition [35] -7% | inhibition [36] 3% | inhibition [37] 17% | inhibition [38] 27% | inhibition [39] -4% | inhibition (Rattus norvegicus) 5% | inhibition [40] 3% | inhibition [41] 8.26% | inhibition [42] 1% | inhibition [43] -8%
